According to ChEMBL document CHEMBL1123356, “Plant antitumor agents. 22. Isolation of 11-hydroxycamptothecin from Camptotheca acuminata Decne: total synthesis and biological activity” (1986):

How the values were obtained:
Format in all cases: functional, Mus musculus
L1210 [1] = test: Compound was tested for active dose in L1210 Leukemia assay; 10-40 mg/kg
L1210 [2] = test: Compound was tested for maximum percentage T/C in L1210 Leukemia assay at 40 mg/kg (no cures out of 6)
L1210 [3] = test: Compound was tested for toxic dose in L1210 Leukemia assay
L1210 [4] = test: Compound was tested for active dose in L1210 Leukemia assay; 7.5-60 mg/kg
L1210 [5] = test: Compound was tested for maximum percentage T/C in L1210 Leukemia assay at 60 mg/kg (3 cures out of 6)
L1210 [6] = test: Compound was tested for active dose in L1210 Leukemia assay; 2-8 mg/kg
L1210 [7] = test: Compound was tested for maximum percentage T/C in L1210 Leukemia assay at 8 mg/kg (no cures out of 6)

Compound	Active dose (L1210 [1]) [mg/kg]	T/C (L1210 [2]) [%]	Toxic dose (L1210 [3]) [mg/kg]	Active dose (L1210 [4]) [mg/kg]	T/C (L1210 [5]) [%]	Active dose (L1210 [6]) [mg/kg]	T/C (L1210 [7]) [%]
CC[C@@](O)(C(=O)[O-])c1cc2n(c(=O)c1CO)Cc1cc3ccccc3nc1-2.[Na+]	10	178	80				
CC[C@@]1(O)C(=O)OCc2c1cc1n(c2=O)Cc2cc3ccc(O)cc3nc2-1 (racemic)				7.5	357		
CC[C@@]1(O)C(=O)OCc2c1cc1n(c2=O)Cc2cc3ccccc3nc2-1 [CAMPTOTHECIN]			16			2	164
